Publication PMC4746285, “Functional Analysis of the Citrate Activator CitO from Enterococcus faecalis Implicates a Divalent Metal in Ligand Binding” (Frontiers in Microbiology, 2016)
Like-named read-outs stand apart in the source and are kept apart here.

Columns and labels:
[1] = molecular target: T1, CitO-wt (Enterococcus faecalis, UniProt Q82YV4); format: biochemical; conditions: for Effect on CitO-PcitH−CL complex formation: EDTA-treated CitO-wt
[2] = molecular target: TM0439; set-up: method as in Zheng et al., 2009; conditions: ref Zheng et al., 2009; cited from earlier work
[3] = tested on: T2, CitO-L214A L214A (Enterococcus faecalis), ORF:7f2fe6d0; assay: EMSA
T2 sequence: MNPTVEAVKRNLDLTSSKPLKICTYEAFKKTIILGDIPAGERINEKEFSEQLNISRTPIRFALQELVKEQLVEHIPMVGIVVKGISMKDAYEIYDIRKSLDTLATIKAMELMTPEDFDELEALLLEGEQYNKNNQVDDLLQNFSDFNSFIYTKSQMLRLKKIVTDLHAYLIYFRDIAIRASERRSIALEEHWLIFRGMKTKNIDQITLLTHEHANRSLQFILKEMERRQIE

[4] = molecular target: T1, CitO-wt; assay: Isothermal titration calorimetry of CitO-wt with citrate; format: binding
Protocol: Measurements were performed on a VP-Microcalorimeter (MicroCal, Northampton, MA) at 25°C. The proteins were thoroughly dialyzed against 10 mM Tris (pH 8.0), 500 mM NaCl, and 2.5% glycerol. A solution of citrate (1 mM, pH 8.0) was directly prepared in dialysis buffer. Each titration involved a series of 3 μl injections of the effector molecule into the protein solution. The mean enthalpies measured from injection of the ligand in the buffer were subtracted from raw titration data prior to data analysis with Origin 8 software (MicroCal). Titration curves were fitted by a nonlinear least squares method to a function for the binding of a ligand to a macromolecule (Wiseman et al., [1989]). From the curve thus fitted, the parameters ΔH (reaction enthalpy), KA (binding constant, KA = 1/KD), and N (reaction stoichiometry) were determined. From the values of KA and ΔH, the changes in free energy (ΔG) and entropy (ΔS) were calculated with the following equation: ΔG = −RT lnKA = ΔH−TΔS; where R is the universal molar gas constant and T is the absolute temperature.

[5] = molecular target: T3, CitO-Q64A (Enterococcus faecalis, UniProt Q82YV4, Q64A); assay: biochemical; format: binding
[6] = molecular target: T4, CitO-H74A (Enterococcus faecalis, UniProt Q82YV4, H74A); assay: biochemical; format: binding
[7] = molecular target: CitO-R97A; format: binding; conditions: ITC, 25°C, ni = no interaction
[8] = molecular target: T5, CitO-F143A (Enterococcus faecalis, UniProt Q82YV4, F143A); assay: biochemical; format: binding
[9] = molecular target: CitO-H191A; format: binding; conditions: ITC, 25°C, ni = no interaction
[10] = molecular target: T6, CitO-L214A (Enterococcus faecalis, UniProt Q82YV4, L214A); assay: biochemical; format: binding
[11] = molecular target: T1, CitO-wt; format: binding
Protocol: The assay was carried out as described earlier (Pagliai et al., [2010]). Briefly, CitO (10 μM), in presence or absence of increasing concentrations of citrate or malate (the latter was used as a negative control), was placed (in duplicate) into 96-well plates (Bio-Rad, Hercules, CA) and heated from 25 to 80°C at the rate of 1°C per min. The unfolding of the protein was monitored by the increase in fluorescence of the fluorophore SYPRO Orange (Invitrogen). Fluorescence intensities were plotted against temperature for each sample well and transition curves were fitted with the Boltzmann equation using Origin 8 software (Northampton, MA). The midpoint of each transition curve was calculated and values obtained in presence of the ligand compared to those calculated for CitO in absence of the ligand.

[12] = molecular target: T3, CitO-Q64A; format: binding; conditions: DSF
[13] = molecular target: T4, CitO-H74A; format: binding; conditions: DSF
[14] = tested on: CitO-R97A; format: binding; conditions: DSF, citrate up to 1 mM
[15] = molecular target: T5, CitO-F143A; format: binding; conditions: DSF, 50 μM citrate, Tm = 50°C without citrate
[16] = tested on: CitO-H191A; format: binding; conditions: DSF, citrate up to 1 mM
[17] = molecular target: T6, CitO-L214A; format: binding; conditions: DSF, only at 50 μM citrate or higher
[18] = molecular target: T3, CitO-Q64A; format: biochemical; conditions: EMSA, 5 mM citrate
[19] = molecular target: T4, CitO-H74A; format: biochemical; conditions: EMSA, 5 mM citrate
[20] = tested on: CitO-R97A; format: biochemical; conditions: EMSA, 5 mM citrate
[21] = molecular target: T5, CitO-F143A; format: biochemical; conditions: EMSA, 5 mM citrate
[22] = tested on: CitO-H191A; format: biochemical; conditions: EMSA, 5 mM citrate
[23] = molecular target: T6, CitO-L214A; format: biochemical
[24] = tested on: PcitCL promoter activity; assay: β-galactosidase assay, PcitCL fusion to lacZ in JHB14 strains expressing CitO variants; format: cell-based, E. faecalis; conditions: for β-galactosidase activity: LB with 17 mM citrate
[25] = tested on: CitO; set-up: method as in Blancato et al., 2008; conditions: in vivo and in vitro experiments; ref Blancato et al., 2008; cited from earlier work
[26] = molecular target: CitO, regulator of citrate metabolism from Enterococcus faecalis (Enterococcus faecalis); assay: SEC; Superdex 75; 200 ul of 28.4 uM CitO, with or without 1 mM citrate (pH 8.0), 30 min on ice before injection; 50 mM Tris pH 7.6, 300 mM NaCl, 5% glycerol; 4°C; mass from a standard curve of protein standards
[27] = EMSA, 0.2 μM CitO-wt, Me2+ 2 mM, absence of citrate
[28] = EMSA, Me2+ 2 mM together with 5 mM citrate
[29] = DSF, CitO-wt, ligand added, without ligand Tm1 = 43°C, Tm2 = 58°C

## [Mg+2] [Mg^2+]
[1]; [27]
  Effect on binding of CitO to PcitH−CL: did not modify the binding

## [Ni+2] [Ni^2+]
[1]; [27]
  Effect on binding of CitO to PcitH−CL: decreased the binding
[1]; [28]
  Effect on CitO-PcitH−CL complex formation: increased the stability of the larger CitO-PcitH−CL complexes
[2]
  KD: nanomolar range

## GGTATACGTTCATTATAGAAAAAACCGTTAAAAAACCTAGTGAAAACACTAGCTCAGATTGTTCTTTTATTGTTTATTTTGTGAAAAAAACTCTGTAAACATTGGTATATAAGCATTTATCAGCCGTTAAGATTCTATTAATATTATATTAAGTTATTAATAAGAATTTGATTGTTGAATTGTTTTTTTGATGTTCTTTTTGTTTTAGGCTATTTATTCTCTGCGAAAGTTTGTATATTCTCACAC (double strand) [PcitH-CL]
[3]
  binding: binds

## O=C(O)CC(O)(CC(=O)O)C(=O)O [citrate]
[4]
  Kd: 1200 ± 200 nM
[4]; ITC, CitO-wt
  ΔG: -7983.4 cal/mol
  ΔH: 6122 cal/mol
  ΔS (entropy change): 47.3 cal/mol/deg
[5]
  Kd: 770 ± 100 nM
[5]; ITC, CitO-Q64A
  ΔG: -8340 cal/mol
  ΔH: 6724 cal/mol
[6]
  Kd: 820 ± 40 nM
[6]; ITC, CitO-H74A
  ΔG: -8434.6 cal/mol
  ΔH: 6500 cal/mol
[7]
  KD: did not interact and ni^*
[8]
  Kd: 440 ± 80 nM
[8]; ITC, CitO-F143A
  ΔG: -8685.7 cal/mol
  ΔH: 16020 cal/mol
[9]
  KD: did not interact and ni^*
[10]
  Kd: 1200 ± 200 nM
[10]; ITC, CitO-L214A
  TΔS: 46.5 cal/mol/deg
  ΔG: -8070 cal/mol
  ΔH: 5780 cal/mol
[11]; [29]
  Shift in the Tm2: induced a shift in the Tm2
[12]; 5 μM citrate
  Shift in Tm: clear shift in Tm
[12]; 50 μM citrate
  Thermal stability: higher stability
[13]
  Interaction with citrate in solution: still able to interact with citrate
[14]
  Denaturation temperature in presence vs absence of citrate: denatured at similar temperature
[15]
  Tm: 57 °C
[16]
  Denaturation temperature in presence vs absence of citrate: denatured at similar temperature
[17]
  ΔTm (increase in Tm2): 4 °C
[1]; EMSA, CitO-wt, citrate up to 5 mM
  Stability of the CitO-DNA complexes: increased
[1]; EMSA, 5 mM citrate alone
  Effect on CitO-PcitH−CL complex formation: improved the formation of intermediate complexes
[18]
  Ability to bind the DNA probe in presence of citrate: comparable to the wild type
[19]
  Effect on formation of protein:DNA complexes: did not modify the formation of protein:DNA complexes
[20]
  Effect on formation of protein:DNA complexes: did not modify the formation of protein:DNA complexes
[21]
  Shift of protein:DNA complex: strong shift
[22]
  Effect on formation of protein:DNA complexes: did not modify the formation of protein:DNA complexes
[23]
  Effect on binding to PcitH−CL: increased the binding
[24]
  Increment in the β-galactosidase activity: 64 fold
[24]; CitO-H191A strain
  β-galactosidase activity: very low β-galactosidase activity
[24]; CitO-R97A strain
  β-galactosidase activity: very low β-galactosidase activity
[24]; strain carrying CitO-H74A
  β-galactosidase activity: reduced β-galactosidase activity
[24]; strain containing CitO-F143A
  β-galactosidase activity: induced
[24]; strain containing CitO-Q64A
  β-galactosidase activity: induced
[24]; strain containing CitO-wt
  β-galactosidase activity: induced
[25]
  Activation of CitO: specifically activated only by citrate

## [Mn+2] [Mn^2+]
[1]; [27]
  Effect on binding of CitO to PcitH−CL: did not modify the binding

## CitO, regulator of citrate metabolism from Enterococcus faecalis (natural protein)
[26]
  stoichiometry N: 2

## O=C(O)CC(O)C(=O)O (stereo not shown) [malate]
[11]; [29]
  Shift in the Tm2: did not show a shift in the Tm2

## O=C(O)CC(C(=O)O)C(O)C(=O)O (stereo not shown) [isocitrate]
[11]; [29]
  Shift in the Tm2: did not show a shift in the Tm2

## [Ca+2] [Ca^2+]
[1]; [27]
  Effect on binding of CitO to PcitH−CL: did not modify the binding

## succinate
[11]
  Shift in the Tm2: did not show a shift in the Tm2

## O=C(O)CN(CCN(CC(=O)O)CC(=O)O)CC(=O)O [EDTA]
[1]
  Effect on binding of CitO to PcitH−CL: decreased the binding

## [Zn+2] [Zn^2+]
[1]; [27]
  Effect on binding of CitO to PcitH−CL: decreased the binding
[1]; [28]
  Effect on CitO-PcitH−CL complex formation: increased the stability of the larger CitO-PcitH−CL complexes
[2]
  KD: nanomolar range
